The results in this text go back to patent US20240156854A1, “METHYLCOBALAMIN OPHTHALMIC PREPARATION AND USE THEREOF” (EYE INSTITUTE OF SHANDONG FIRST MEDICAL UNIVERSITY, priority 2022, published 2024).

The test system of assay [1] is Mouse model of neurotrophic keratitis. Briefly: Confocal laser microscope imaging of corneal nerves (β-tubulin III staining) in mouse model of neurotrophic keratitis. To be noted: 14 d after the operation. The format is in vivo, C57BL/6 mice. Here is the method: (§1) (1) C57BL/6 mice, 6 to 8 weeks old, male, weighing 20 g to 25 g, were purchased from Beijing Vital River Laboratory Animal Technology Co., Ltd. Animal breeding was conducted in the Animal Laboratory of the Eye Institute of Shandong First Medical University. The temperature was controlled at 22±2° C., the humidity was controlled at 60±10%, a light and dark cycle was 12 h, and food and drink were given ad libitum.
(2) Experimental grouping: 30 of 6- to 8-week-old C57BL/6 male mice (body weight 20 g to 25 g) were randomly divided into 5 groups, 6 in each group, respectively: • 1. A control group • 2. An eye drop group with the control methylcobalamin ophthalmic drop Comparative Example 1 • 3. An eye drop group with a recombinant human nerve growth factor • 4. An eye drop group with methylcobalamin+proanthocyanidin (Example 1) • 5. A subconjunctival implantation group with a methylcobalamin hydrogel (Example 2) […]
Samples were taken 14 d after the operation. […] The cornea was washed 6 times with PBS, 10 min each time, the corneal epithelium was spread upward, and sealed with DAPI-containing anti-fluorescence quenching buffered glycerin, stored in the dark, and then imaged with a confocal laser microscope.

Assay [2] has the same test system. Briefly: Slit lamp photography of the eye in mouse model of neurotrophic keratitis. The assay is classed as in vivo, C57BL/6 mice. To be noted: day 7, slit lamp; eye drops 4 times a day or subconjunctival hydrogel implant (about 0.02 mg). On the procedure:
as §1
(2) Experimental grouping: 30 of 6- to 8-week-old C57BL/6 male mice (body weight 20 g to 25 g) were randomly divided into 5 groups, 6 in each group, respectively: • 1. A control group • 2. An eye drop group with the control methylcobalamin ophthalmic drop Comparative Example 1 • 3. An eye drop group with a recombinant human nerve growth factor • 4. An eye drop group with methylcobalamin+proanthocyanidin (Example 1) • 5. A subconjunctival implantation group with a methylcobalamin hydrogel (Example 2)
The mice were intraperitoneally anesthetized with a 0.6% pentobarbital sodium solution (1 ml/100 g), fixed on an operating table in a lateral position, and the bulbar conjunctiva was incised 90 degrees along the temporal corneoscleral limbus with Vannas scissors. The retroorbital venous plexus should not be damaged. […]

Consider “recombinant human nerve growth factor: recombinant human nerve growth factor eye drops, comparator group”, for which the “regeneration of corneal nerve endings” value in assay [1] is reported as “regenerated”. Further, the corneal neovascularization entry in assay [2] is listed as “not obvious”.
